Reference: ChEMBL document CHEMBL1201862, “PubChem BioAssay data set” (2004)
Active and inactive are the calls of the source.

Experiments:
[1] = molecular target: Large T antigen (Simian virus 40, UniProt P03070); type: functional, Betapolyomavirus macacae;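 further: Confirmatory-stage PubChem screen for compounds that inhibit SV40 T antigen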
[2] = molecular target: FAD-linked sulfhydryl oxidase ALR (Homo sapiens, UniProt P55789); experiment: inhibitors of human ALR sulfhydryl oxidase, dose response, biochemical, H2O2 detection, luminescence, cherry-pick (AID 493248)
[3] = cells; type: functional, cell-based
[4] = cells; type: functional, cell-based; remark: listed apart in the source
[5] = NIH-3T3 fibroblast cytotoxicity, dose response, cytotoxicity control, cell-based, fluorescence, Alamar Blue, secondary assay (AID 2327); type: functional;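 further: NIH-3T3 mouse fibroblasts cultured with fluconazole at 8 µg/mL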
[6] = tested on: Streptococcus sp. 'group A'; experiment: growth inhibition of control SK(-) GAS strain, dose response, counter-screen for streptokinase expression inhibitor project, luminescence, kanamycin, BacTiterGlo, confirmation (AID 1900); type: functional, organism-based
[7] = C. albicans growth with fluconazole, confirmation, fluorescence, retest (AID 2467); type: functional, cell-based
[8] = inhibitors of intracellular T. cruzi replication, confirmation, NIH3T3 host cells, beta-gal luminescence (AID 2044); type: functional, cell-based;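 further: intracellular parasites grown in NIH/3T3 mouse fibroblasts as host cells; luminescent beta-galactosidase reporter signal from transgenic T. cruzi replicating inside host cells; inhibitors lower the luminescence signal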
[9] = cytotoxicity toward NIH3T3 fibroblasts, dose response, counter-screen, cell-based, ATP luminescence, mouse fibroblasts (AID 2010); type: functional;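 further: cells exposed to compound for about 90 hours before reading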
[10] = tested on: Streptococcus; experiment: Group A Streptococcus viability loss, dose response, counter-screen for streptokinase expression inhibitor project, luminescence, BacTiterGlo (AID 1915); type: functional, organism-based;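 further: potency for reduction of bacterial viability or growth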
[11] = molecular target: T1, Short transient receptor potential channel 4 (Mus musculus, UniProt Q9QUQ5); experiment: mouse TRPC4 channel inhibitors, dose response, cell-based, HEK293 TRPC4/mu-opioid, Fluo-4 calcium (AID 434942); type: functional;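 further: potency of inhibitors blocking the TRPC4 calcium response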
T1 sequence (Q9QUQ5 whole entry): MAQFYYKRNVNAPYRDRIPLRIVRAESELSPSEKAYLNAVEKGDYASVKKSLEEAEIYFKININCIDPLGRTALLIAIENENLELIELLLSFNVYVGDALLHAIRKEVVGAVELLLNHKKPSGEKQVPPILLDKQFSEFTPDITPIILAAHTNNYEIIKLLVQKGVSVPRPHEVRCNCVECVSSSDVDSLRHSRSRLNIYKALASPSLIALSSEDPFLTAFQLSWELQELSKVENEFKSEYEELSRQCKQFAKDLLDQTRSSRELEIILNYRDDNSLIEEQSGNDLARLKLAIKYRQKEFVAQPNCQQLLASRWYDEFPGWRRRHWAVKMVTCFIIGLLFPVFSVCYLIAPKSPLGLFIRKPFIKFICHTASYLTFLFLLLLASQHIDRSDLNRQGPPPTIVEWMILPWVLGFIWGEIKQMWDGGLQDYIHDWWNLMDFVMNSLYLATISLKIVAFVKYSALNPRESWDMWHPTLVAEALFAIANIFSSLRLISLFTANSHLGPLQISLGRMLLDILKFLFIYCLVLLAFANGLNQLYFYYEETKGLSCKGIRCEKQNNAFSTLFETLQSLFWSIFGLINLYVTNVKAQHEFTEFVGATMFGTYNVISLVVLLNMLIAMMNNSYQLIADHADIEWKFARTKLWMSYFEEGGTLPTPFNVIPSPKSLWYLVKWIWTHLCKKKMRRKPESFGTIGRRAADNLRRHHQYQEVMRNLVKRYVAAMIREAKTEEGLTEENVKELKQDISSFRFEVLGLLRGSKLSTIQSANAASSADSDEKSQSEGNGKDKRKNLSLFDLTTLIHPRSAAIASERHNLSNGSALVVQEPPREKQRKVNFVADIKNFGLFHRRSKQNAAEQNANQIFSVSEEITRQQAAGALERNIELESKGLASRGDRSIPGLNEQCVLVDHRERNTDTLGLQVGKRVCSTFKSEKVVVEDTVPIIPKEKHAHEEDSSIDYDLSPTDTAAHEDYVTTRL

[12] = tested on: H9c2; experiment: cells; type: functional, cell-based; settings: Rattus norvegicus, H9c2, Myocardium;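 further: confirmatory concentration-response retest of ultra-high-throughput screening hits for modulation of myocardial damage; cell death induced by hydrogen peroxide oxidative stress; compound pretreatment for 60 min then peroxide exposure for 2 h; potency is for protecting the cells against peroxide damage rather than for killing them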
[13] = tested on: Vero; experiment: cells; type: functional; settings: Chlorocebus sabaeus
[14] = molecular target: T2, Mannose-6-phosphate isomerase (Homo sapiens, UniProt P34949); experiment: human PMI inhibitors, high substrate, primary screen, biochemical, fluorescence intensity, high mannose 6-phosphate (AID 1220)
T2 sequence (P34949 whole entry): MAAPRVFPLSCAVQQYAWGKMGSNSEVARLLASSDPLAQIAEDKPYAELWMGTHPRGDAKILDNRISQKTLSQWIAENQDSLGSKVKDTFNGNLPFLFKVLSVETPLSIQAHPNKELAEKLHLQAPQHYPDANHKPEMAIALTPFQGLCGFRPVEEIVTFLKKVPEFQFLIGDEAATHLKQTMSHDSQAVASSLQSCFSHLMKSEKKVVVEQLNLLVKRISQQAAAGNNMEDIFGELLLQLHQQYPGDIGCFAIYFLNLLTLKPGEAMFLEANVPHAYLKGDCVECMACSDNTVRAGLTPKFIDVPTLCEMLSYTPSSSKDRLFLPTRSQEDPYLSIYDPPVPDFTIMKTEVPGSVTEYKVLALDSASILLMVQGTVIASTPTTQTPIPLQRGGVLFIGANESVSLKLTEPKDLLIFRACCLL

[15] = molecular target: T3, Polyadenylate-binding protein 1 (Homo sapiens, UniProt P11940); experiment: PABP1 MLLE–PAM2 interaction inhibitors, dose response, miRNA deadenylation inhibitor project, biochemical, fluorescence polarization, Cy5-PAM2 peptide, secondary (AID 602260); type: functional; settings: read-out: IC50_Mean
[16] = molecular target: T3, Polyadenylate-binding protein 1; experiment: PABP1 MLLE–PAM2 binding inhibitor potency, dose response, biochemical, fluorescence polarization, FITC-PAM2 peptide (AID 602259); type: functional; settings: read-out: IC50_Mean
[17] = molecular target: T4, Calpain-2 catalytic subunit (Sus scrofa, UniProt P43367); experiment: pig calpain II inhibitor potency, dose response, biochemical, fluorogenic peptide substrate (AID 1420); type: functional
T4 sequence (P43367 whole entry): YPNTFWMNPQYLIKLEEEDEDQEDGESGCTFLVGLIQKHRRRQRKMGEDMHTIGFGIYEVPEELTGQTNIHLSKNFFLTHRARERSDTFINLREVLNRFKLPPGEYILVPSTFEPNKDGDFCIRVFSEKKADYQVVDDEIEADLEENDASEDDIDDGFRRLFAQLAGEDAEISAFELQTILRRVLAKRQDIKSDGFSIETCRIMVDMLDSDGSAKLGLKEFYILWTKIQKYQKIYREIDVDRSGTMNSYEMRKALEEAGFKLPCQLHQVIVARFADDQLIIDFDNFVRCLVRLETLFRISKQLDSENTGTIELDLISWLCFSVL

[18] = molecular target: T5, Coagulation factor XII (Homo sapiens, UniProt P00748); type: functional;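 further: activated factor XIIa alpha cleaving a fluorogenic AMC peptide substrate; inhibitor potency from loss of enzyme activity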
T5 sequence (P00748 whole entry): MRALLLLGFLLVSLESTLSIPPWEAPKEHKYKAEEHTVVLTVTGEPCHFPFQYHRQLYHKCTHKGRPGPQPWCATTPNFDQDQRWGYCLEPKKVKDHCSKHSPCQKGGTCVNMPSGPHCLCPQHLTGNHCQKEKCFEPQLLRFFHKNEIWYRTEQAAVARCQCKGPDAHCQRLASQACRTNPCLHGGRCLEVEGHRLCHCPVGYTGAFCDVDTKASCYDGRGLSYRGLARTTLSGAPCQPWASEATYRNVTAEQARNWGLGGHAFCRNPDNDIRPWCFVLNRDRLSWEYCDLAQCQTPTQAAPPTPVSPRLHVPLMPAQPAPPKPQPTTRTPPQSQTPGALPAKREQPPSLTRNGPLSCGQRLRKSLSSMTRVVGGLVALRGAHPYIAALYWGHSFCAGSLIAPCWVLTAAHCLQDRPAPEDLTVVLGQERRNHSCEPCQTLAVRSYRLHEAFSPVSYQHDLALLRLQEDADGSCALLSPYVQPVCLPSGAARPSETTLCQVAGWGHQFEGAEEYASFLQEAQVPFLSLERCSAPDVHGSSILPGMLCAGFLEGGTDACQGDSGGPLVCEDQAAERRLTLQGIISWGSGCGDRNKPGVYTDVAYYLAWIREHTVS

[19] = molecular target: Cytochrome P450 2C9 (Homo sapiens, UniProt P11712); settings: Potency
[20] = Luminescence Cell-Based Dose Confirmation HTS to Identify Activators of 5'UTR Stem-Loop Driven Alpha-Synuclein mRNA Translation in H4 Neuroglioblastoma Cells. [Related pubchem assays: 1829 (Project Summary), 1814 (Primary HTS)]; type: functional
[21] = Luminescence Cell-Based Dose Response HTS to Identify Activators of Luciferase Translation or Activity in H4 […] Cells. [Related pubchem assays: 1829 (Project Summary), 1814 (Primary HTS)]; type: functional
[22] = tested on: H4; experiment: Luminescence Cell-Based Dose Response HTS to Identify Activators of 5'UTR Stem-Loop Driven Prion Protein mRNA Translation in H4 Neuroglioblastoma Cells. [Related pubchem assays: 1829 (Project Summary), 1814 (Primary HTS)]; type: functional; settings: Homo sapiens
[23] = cytotoxicity in HPDE-C7 cells, cell-based, fluorescence, HTS (AID 430); type: functional; settings: Homo sapiens
[24] = cytotoxicity in KRAS-transformed pancreatic duct cells, primary screen, cell-based, fluorescence, HTS (AID 431); type: functional; settings: Homo sapiens;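 further: cell line used: HPDE-C7K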
[25] = Luminescence Cell-Based Dose Retest to Confirm Inhibitors of Cancer Stem Cells. [Related pubchem assays (depositor defined):AID2717, AID2721]; type: functional; settings: Homo sapiens
[26] = molecular target: T6, Ubiquitin-conjugating enzyme E2 N (Homo sapiens, UniProt P61088); type: functional;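 further: Dose-response confirmation in a TR-FRET assay detecting UBC13-driven polyubiquitin chain formation, inhibition measured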
T6 sequence (P61088 whole entry): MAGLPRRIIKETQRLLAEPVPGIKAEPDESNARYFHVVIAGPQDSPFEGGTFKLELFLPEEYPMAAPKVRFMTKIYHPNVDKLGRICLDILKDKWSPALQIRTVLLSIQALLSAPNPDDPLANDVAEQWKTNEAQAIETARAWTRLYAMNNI

[27] = molecular target: Cytochrome P450 3A4 (Homo sapiens, UniProt P08684); settings: Potency;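 further: confirmatory qHTS run detecting inhibitors and substrates of CYP3A4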
Chain of Cytochrome P450 3A4 (P08684 whole entry): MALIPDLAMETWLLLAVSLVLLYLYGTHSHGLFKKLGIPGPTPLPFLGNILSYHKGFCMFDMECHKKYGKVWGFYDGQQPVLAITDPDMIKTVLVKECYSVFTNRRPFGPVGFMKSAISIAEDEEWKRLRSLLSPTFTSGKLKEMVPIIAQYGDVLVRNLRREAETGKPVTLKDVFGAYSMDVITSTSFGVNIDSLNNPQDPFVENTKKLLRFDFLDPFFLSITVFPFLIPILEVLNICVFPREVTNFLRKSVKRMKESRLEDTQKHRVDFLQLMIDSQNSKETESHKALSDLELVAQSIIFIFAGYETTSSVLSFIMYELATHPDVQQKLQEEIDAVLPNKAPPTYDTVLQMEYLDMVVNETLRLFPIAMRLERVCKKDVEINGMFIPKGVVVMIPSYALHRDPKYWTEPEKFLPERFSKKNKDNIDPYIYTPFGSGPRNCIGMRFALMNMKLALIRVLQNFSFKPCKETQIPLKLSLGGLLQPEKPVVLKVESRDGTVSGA

Chain of Cytochrome P450 2C9 (P11712 whole entry): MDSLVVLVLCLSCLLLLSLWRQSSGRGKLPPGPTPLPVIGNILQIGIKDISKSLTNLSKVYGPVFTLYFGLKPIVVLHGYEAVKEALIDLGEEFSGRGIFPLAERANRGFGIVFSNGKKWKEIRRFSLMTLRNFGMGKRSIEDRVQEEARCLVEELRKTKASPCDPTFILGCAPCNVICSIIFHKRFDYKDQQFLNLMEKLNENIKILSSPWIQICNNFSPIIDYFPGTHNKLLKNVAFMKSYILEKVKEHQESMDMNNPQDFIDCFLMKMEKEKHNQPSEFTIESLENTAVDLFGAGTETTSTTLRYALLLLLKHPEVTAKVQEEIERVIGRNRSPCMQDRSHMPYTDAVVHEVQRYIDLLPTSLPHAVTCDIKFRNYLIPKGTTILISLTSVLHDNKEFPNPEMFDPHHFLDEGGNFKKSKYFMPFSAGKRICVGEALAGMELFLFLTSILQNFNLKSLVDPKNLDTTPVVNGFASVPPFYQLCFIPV
T3 sequence (P11940 whole entry): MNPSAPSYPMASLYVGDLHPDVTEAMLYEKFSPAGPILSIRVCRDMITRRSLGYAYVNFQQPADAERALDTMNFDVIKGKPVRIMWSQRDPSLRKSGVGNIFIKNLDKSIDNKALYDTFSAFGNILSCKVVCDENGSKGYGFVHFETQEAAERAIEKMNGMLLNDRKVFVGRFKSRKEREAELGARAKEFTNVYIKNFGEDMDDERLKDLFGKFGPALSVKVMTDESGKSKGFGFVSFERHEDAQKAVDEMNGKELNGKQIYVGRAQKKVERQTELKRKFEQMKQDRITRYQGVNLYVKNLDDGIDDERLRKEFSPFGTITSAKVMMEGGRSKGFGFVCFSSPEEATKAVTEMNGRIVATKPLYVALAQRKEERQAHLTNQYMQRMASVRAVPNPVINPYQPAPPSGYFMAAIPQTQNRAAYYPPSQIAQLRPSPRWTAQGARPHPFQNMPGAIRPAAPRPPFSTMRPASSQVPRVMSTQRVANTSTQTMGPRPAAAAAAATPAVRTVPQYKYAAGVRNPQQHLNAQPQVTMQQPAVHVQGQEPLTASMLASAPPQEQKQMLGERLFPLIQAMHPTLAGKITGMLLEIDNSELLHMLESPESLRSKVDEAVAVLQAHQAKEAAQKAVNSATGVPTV
Chain of Large T antigen (P03070 whole entry): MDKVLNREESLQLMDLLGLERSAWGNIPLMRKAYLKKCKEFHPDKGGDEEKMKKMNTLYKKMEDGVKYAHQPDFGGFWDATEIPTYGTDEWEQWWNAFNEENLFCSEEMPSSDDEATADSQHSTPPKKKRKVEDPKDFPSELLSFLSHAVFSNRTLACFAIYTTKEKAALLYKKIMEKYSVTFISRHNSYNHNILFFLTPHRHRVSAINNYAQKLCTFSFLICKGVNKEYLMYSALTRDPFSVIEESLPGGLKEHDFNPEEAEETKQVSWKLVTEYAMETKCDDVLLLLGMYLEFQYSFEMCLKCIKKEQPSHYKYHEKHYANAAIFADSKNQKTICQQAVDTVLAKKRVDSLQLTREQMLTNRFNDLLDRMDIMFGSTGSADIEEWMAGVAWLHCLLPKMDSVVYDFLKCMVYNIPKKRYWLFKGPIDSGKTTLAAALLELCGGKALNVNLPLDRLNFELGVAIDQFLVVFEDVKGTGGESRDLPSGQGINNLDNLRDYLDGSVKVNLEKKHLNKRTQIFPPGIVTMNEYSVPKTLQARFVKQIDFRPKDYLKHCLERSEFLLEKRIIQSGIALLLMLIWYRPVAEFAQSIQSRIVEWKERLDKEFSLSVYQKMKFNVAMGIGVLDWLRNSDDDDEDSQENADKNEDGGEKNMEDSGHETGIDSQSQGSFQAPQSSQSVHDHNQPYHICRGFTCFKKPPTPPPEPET
Chain of FAD-linked sulfhydryl oxidase ALR (P55789 whole entry): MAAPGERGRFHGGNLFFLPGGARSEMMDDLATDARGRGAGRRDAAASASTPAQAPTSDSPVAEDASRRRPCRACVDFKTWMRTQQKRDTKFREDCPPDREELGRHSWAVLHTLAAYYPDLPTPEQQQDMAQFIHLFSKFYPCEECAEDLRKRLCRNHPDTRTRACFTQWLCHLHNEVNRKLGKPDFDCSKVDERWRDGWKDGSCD

## CCN(CC)c1ccc(N/C=C2/C(=O)NC(=O)N(c3ccccc3C)C2=O)cc1
[1]
  IC50: > 100 µM (active)
[2]
  AC50: 1.46 µM (active)

## O=C(c1ccc(F)cc1)N(Cc1cccs1)C1CCS(=O)(=O)C1 (centres undefined)
[3]
  EC50: > 350 µM (not active)
[4]
  EC50: > 350 µM (not active)

## COc1cc(NS(=O)(=O)c2ccc3ccccc3c2)c2ncccc2c1
[5]
  EC50: > 160 µM (inactive)
[6]
  EC50: 0.412 µM (active)
[7]
  EC50: 3.98 µM (active)
[8]
  EC50: 0.342 µM (active)
[9]
  EC50: 1.09 µM (active)
[10]
  EC50: 7.28 µM (active)
[11]
  EC50: 0.668 µM (active)
[12]
  IC50: > 79 µM (inactive)
[13]
  CC50: > 25 µM (active)

## N#Cc1cc2c(nc1S)CCCCCC2
[14]
  IC50: > 50 µM (not active)
[15]
  IC50: > 66 µM (inactive)
[16]
  IC50: > 66 µM (inactive)

## Cc1cc(C)nc(N=C(N)N(Cc2ccccc2)Cc2ccccc2)n1
[17]
  IC50: > 50 µM (not active)
[11]
  EC50: 1.5 µM (active)

## COc1ccc(S(=O)(=O)N2CCCC2C(=O)Nn2cnnc2)cc1 (centres undefined)
[18]
  IC50: > 50 µM (inactive)

## C=CCOC(=O)C(C(C)=O)C(NC(=O)OC)c1cccc(F)c1 (centres undefined)
[19]
  AC50: 1 µM (inconclusive)

## CC1CN(c2nc3ccccn3c(=O)c2/C=C(\C#N)C(=O)N2CCOCC2)CC(C)O1 (centres undefined)
[3]
  EC50: > 350 µM (not active)
[4]
  EC50: > 350 µM (not active)

## CCOC(=O)/C(C#N)=C/N=c1/ccc(C)cn1C
[20]
  EC50: 53.5 µM (active)
[21]
  EC50: 23.8 µM (active)
[22]
  EC50: > 120 µM (not active)
[18]
  IC50: > 50 µM (inconclusive)

## Cc1nc2sccn2c(=O)c1CCN1CCC(=C(c2ccc(F)cc2)c2ccc(F)cc2)CC1 [RITANSERIN]
[23]
  EC50: > 20 µM (not active)
[24]
  EC50: > 20 µM (not active)
[25]
  AC50: 6.23 µM (active)
[26]
  IC50: > 20 µM (inactive)
[27]
  AC50: 20 µM (inconclusive)
[19]
  AC50: 25.1 µM (inconclusive)

## N#Cc1ccsc1NC(=O)CN1CCN(c2ccc(O)cc2)CC1
[1]
  IC50: 6.44 µM (active)

## NCCC[C@@H](CC(=O)N[C@@H]1CCCC[C@H]1C(=O)N[C@H](CC(=O)N[C@@H](CCC(=O)O)CC(=O)O)Cc1c[nH]c2ccccc12)NC(=O)C[C@H](CO)NC(=O)[C@@H]1CCCC[C@H]1N
[19]
  AC50: 31.6 µM (inconclusive)
